These results are taken from patent US20230000870A1, “METHODS OF TREATING CANCER IN BIOMARKER-IDENTIFIED PATIENTS WITH INHIBITORS OF CYCLIN-DEPENDENT KINASE 7 (CDK7)” (Syros Pharmaceuticals, Inc., priority 2019, published 2023).

One assay deals with CDK2/Cyclin E1 complex (Homo sapiens, UniProt P24941). The experiment in a line: CDK2 kinase inhibition assay (Caliper/LabChip EZ Reader). Type of assay: biochemical. The settings on record: CDK2/Cyclin E1 0.5 nM, ATP 2 mM, 35 min at 27° C. The procedure: (§1) Compounds of the invention were assayed for inhibition of CDK7, CDK9, CDK12, and CDK2 activity at Biortus Biosciences (Jiangyin, Jiangsu Province, P.R. of China) using kinase assays for each CDK developed with a Caliper/LabChip EZ Reader (Perkin Elmer, Waltham, Mass.).
(§2) Furthermore, the CDK9 inhibition assay used CDK9/Cyclin T1 complex (8 nM) and “5-FAM-CDK9tide” peptide substrate (2 μM, synthesized fluorophore-labeled peptide with the following sequence: 5-FAM-GSRTPMY-NH2 where 5-FAM is defined above and NH2 signifies a C-terminal amide) with 10 mM MgCl2 in the buffer composition listed above. The CDK12 inhibition assay used CDK12 (aa686-1082)/Cyclin K complex (50 nM) and “5-FAM-CDK9tide” (2 μM) as defined above, with 2 mM MgCl2 in the buffer composition above. Additionally, the CDK2 inhibition assay used CDK2/Cyclin E1 complex (0.5 nM) and “5-FAM-CDK7tide” (2 μM) as defined above, with 2 mM MgCl2 in the buffer composition listed above.
(§3) The incubation period at 27° C. for each CDK inhibition assay was chosen such that the fraction of phosphorylated peptide product produced in each assay, relative to the total peptide concentration, was approximately 20% (±5%) for the uninhibited kinase (35 min. for CDK7, 35 min. for CDK2, 3 hr. for CDK12, 15 min. for CDK9).

The target of assay [1] is CDK7/Cyclin H/MAT1 complex (Homo sapiens, UniProt P50613). Briefly: CDK7 kinase inhibition assay (Caliper/LabChip EZ Reader). The settings on record: CDK7/Cyclin H/MAT1 6 nM, ATP 2 mM, 35 min at 27° C. Type of assay: biochemical. The procedure: as §1, §2, §3
Chain of CDK7/Cyclin H/MAT1 complex (P50613 whole entry): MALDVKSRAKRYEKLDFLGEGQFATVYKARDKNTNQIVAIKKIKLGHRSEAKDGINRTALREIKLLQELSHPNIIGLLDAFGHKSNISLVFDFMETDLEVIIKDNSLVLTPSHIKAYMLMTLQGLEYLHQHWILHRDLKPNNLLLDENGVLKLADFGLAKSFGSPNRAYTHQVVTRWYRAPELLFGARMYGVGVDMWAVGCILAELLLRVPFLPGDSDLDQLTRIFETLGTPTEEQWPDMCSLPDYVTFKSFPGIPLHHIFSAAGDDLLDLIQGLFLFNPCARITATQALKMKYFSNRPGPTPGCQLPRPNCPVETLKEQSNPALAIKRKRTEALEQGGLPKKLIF
Chain of CDK7/Cyclin H/MAT1 complex (P51946 whole entry partner): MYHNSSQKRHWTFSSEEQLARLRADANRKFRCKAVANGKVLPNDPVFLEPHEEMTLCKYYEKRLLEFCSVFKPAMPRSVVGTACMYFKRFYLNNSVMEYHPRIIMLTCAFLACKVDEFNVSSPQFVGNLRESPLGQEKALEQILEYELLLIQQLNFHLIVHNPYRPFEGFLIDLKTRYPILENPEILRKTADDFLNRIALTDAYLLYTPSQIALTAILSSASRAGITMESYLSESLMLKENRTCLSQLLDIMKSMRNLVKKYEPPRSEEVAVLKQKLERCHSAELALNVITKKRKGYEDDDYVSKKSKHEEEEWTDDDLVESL
Chain of CDK7/Cyclin H/MAT1 complex (P51948 whole entry partner): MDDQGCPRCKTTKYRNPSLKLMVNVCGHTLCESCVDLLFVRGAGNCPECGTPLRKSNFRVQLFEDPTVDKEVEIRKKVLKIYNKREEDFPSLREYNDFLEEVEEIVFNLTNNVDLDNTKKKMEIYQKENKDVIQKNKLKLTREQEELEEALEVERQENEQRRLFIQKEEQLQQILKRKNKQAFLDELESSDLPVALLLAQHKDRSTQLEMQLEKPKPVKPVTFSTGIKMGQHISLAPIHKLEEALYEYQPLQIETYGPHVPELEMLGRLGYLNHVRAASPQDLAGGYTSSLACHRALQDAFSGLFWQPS
The next assay concerns the target CDK9/Cyclin T1 complex (Homo sapiens, UniProt P50750). Briefly: CDK9 kinase inhibition assay (Caliper/LabChip EZ Reader). The format is biochemical. The settings on record: CDK9/Cyclin T1 8 nM, ATP 2 mM, 15 min at 27° C. The procedure: as §1, §2, §3
Assay [2] has as its target T1, CDK12 (aa686-1082)/Cyclin K complex (Homo sapiens, UniProt Q9NYV4).
T1 construct: CDK12 (aa686-1082)/Cyclin K complex
Briefly: CDK12 kinase inhibition assay (Caliper/LabChip EZ Reader). The settings on record: CDK12 (aa686-1082)/Cyclin K 50 nM, ATP 2 mM, 3 hr at 27° C. Type of assay: biochemical. The procedure:
as §1, §2, §3

The test system of a further assay is A673 cells. Briefly: Inhibition of proliferation of A673 cells (CyQUANT, 72 hour). The format is cell-based, human. As to conditions: read-out: Inhibition of Proliferation of A673 Cells (calculated IC50). The procedure:
A673 Cells: A673 cells are a cell line derived from human muscle Ewing's sarcoma. Representative compounds of the invention were tested at different concentrations (from 4 μM to […]; 0.5 log serial dilutions) for their ability to inhibit the proliferation of A673 cells. Known CDK inhibitors dinaciclib or N-((1S,3R)-3-((5-chloro-4-(1H-indol-3-yl)pyrimidin-2-yl)amino)cyclohexyl)-5-((E)-4-(dimethylamino)but-2-enamido)picolinamide and triptolide were used as positive controls. Cells were grown in Dulbecco's Modified Eagle's Medium, +10% FBS+1 mM Sodium Pyruvate. The cells were cultured at 37° C. in a humidified chamber in the presence of 5% CO2. Proliferation assays were conducted over a 72 hour time period. CyQUANT® (Life Technologies, Chicago, Ill. USA) was used to assess the anti-proliferative effects of the compounds following manufacturer's directions and utilizing the reagents supplied with the CyQUANT® kit.

Each structure is given as a SMILES string. pIC50: −log10 of the molar value.

T1 sequence (Q9NYV4 686-1082): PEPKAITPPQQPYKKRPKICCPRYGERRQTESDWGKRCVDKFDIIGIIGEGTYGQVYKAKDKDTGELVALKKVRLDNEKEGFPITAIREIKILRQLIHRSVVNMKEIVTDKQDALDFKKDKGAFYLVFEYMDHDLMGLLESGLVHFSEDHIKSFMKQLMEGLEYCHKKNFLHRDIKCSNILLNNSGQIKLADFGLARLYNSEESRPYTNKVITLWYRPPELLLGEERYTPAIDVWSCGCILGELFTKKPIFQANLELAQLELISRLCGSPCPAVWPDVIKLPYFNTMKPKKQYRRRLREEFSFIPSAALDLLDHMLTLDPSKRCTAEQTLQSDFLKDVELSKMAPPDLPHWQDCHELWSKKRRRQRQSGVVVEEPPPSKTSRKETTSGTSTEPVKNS
T1 sequence (O75909 whole entry partner, the tested form may be a part): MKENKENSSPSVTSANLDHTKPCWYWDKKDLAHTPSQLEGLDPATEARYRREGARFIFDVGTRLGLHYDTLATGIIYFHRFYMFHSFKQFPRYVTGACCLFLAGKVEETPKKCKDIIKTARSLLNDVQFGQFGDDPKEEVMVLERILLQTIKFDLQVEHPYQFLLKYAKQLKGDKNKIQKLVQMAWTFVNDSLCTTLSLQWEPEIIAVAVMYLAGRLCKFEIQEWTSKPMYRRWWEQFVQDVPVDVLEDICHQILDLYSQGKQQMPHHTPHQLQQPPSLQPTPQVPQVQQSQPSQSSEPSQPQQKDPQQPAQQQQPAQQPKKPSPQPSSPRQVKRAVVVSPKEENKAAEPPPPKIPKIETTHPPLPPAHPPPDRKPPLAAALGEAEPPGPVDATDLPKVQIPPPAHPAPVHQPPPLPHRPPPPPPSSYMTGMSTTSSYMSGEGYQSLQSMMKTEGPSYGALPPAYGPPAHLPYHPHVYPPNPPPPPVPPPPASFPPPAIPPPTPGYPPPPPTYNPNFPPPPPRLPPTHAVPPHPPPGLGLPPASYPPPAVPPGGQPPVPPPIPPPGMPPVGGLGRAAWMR
Chain of CDK9/Cyclin T1 complex (P50750 whole entry, the tested form may be a part): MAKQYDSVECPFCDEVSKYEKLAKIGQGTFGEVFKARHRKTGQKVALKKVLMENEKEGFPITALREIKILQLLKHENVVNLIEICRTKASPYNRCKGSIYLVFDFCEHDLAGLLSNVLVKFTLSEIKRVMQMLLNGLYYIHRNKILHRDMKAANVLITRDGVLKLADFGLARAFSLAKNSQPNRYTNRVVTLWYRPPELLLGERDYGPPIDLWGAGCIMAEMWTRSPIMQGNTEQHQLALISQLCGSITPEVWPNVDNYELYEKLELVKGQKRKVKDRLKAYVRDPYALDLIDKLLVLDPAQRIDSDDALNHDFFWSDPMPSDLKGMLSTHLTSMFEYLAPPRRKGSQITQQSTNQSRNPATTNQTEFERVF
Chain of CDK9/Cyclin T1 complex (O60563 whole entry partner, the tested form may be a part): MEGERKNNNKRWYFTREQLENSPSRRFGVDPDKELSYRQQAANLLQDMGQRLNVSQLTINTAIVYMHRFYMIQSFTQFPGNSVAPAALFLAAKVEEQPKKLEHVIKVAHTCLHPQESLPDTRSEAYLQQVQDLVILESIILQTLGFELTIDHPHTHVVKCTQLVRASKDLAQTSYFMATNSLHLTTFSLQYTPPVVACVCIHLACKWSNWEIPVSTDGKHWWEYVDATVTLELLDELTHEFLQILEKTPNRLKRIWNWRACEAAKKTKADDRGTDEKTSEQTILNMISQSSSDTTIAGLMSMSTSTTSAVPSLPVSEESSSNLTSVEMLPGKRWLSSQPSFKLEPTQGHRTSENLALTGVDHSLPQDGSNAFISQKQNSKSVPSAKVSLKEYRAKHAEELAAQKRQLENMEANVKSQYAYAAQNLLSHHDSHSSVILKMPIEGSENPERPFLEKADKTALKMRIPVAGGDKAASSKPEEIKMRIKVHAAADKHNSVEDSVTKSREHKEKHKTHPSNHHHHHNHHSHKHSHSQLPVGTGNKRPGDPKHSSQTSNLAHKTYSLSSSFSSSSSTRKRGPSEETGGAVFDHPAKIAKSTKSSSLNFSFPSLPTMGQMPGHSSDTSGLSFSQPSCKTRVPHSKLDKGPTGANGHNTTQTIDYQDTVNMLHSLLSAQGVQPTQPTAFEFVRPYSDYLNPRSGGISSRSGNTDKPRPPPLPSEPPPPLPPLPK

As for `N#Cc1cc(-c2ccc3c(-c4nc(NC5CCCNC5)ncc4C(F)(F)F)c[nH]c3c2)c[nH]1` (centres unmarked) [Compound 233], the pIC50 at CDK2/Cyclin E1 complex was 5.30 to 6.70; in assay [1], more than 7.70; on CDK9/Cyclin T1 complex it was 5.30 to 6.70; in assay [2], 5.30 to 6.70; in the assay with A673 cells, 6.70 to 7.70.

In the case of `Cc1nn(C)cc1-c1cccc2c(-c3nc(NC4CCCNC4)ncc3C(F)(F)F)c[nH]c12` (centres unmarked) [Compound 171], the pIC50 against CDK2/Cyclin E1 complex is 5.30 to 6.70; in assay [1], more than 7.70; on CDK9/Cyclin T1 complex, 5.30 to 6.70; in assay [2], 5.30 to 6.70; in the assay with A673 cells, more than 7.70.

In the case of `CC(C)(O)CCc1cccc2c(-c3nc(NC4CCCNC4)ncc3C(F)(F)F)c[nH]c12` (centres unmarked) [Compound 191], the pIC50 against CDK2/Cyclin E1 complex was 5.30 to 6.70; in assay [1], more than 7.70; on CDK9/Cyclin T1 complex it was 5.30 to 6.70; in assay [2], 5.30 to 6.70; in the assay with A673 cells it was more than 7.70.

On to `CNC(=O)C1CNCC(Nc2ncc(C(F)(F)F)c(-c3c[nH]c4ccccc34)n2)C1` (centres unmarked) [Compound 253], for which the pIC50 is 6.70 to 7.70 on CDK2/Cyclin E1 complex; more than 7.70 in assay [1]; 5.30 to 6.70 against CDK9/Cyclin T1 complex; 6.70 to 7.70 in assay [2]; 6.70 to 7.70 with A673 cells.

For the compound `Clc1cnc(N[C@H]2CCCNC2)nc1-c1c[nH]c2c(N3CCOCC3)cccc12` [Compound 150], the pIC50 on CDK2/Cyclin E1 complex is 5.30 to 6.70; in assay [1] it was 6.70 to 7.70; at CDK9/Cyclin T1 complex, 5.30 to 6.70; in assay [2], 5.30 to 6.70; with A673 cells, 6.70 to 7.70.

As to `Clc1cnc(NC2CCCNC2)nc1-c1c[nH]c2ccncc12` (centres unmarked) [Compound 117], the pIC50 at CDK2/Cyclin E1 complex is 5.30 to 6.70; in assay [1], 6.70 to 7.70; at CDK9/Cyclin T1 complex, 5.30 to 6.70; in assay [2] it was 5.30 to 6.70; in the assay on A673 cells, 6.70 to 7.70.

On to `CCOP(C)(=O)c1cccc2c(-c3nc(NC4CCCNC4)ncc3C(F)(F)F)c[nH]c12` (centres unmarked) [Compound 179], for which the pIC50 against CDK2/Cyclin E1 complex was 5.30 to 6.70; in assay [1] it was more than 7.70; against CDK9/Cyclin T1 complex, 5.30 to 6.70; in assay [2], 5.30 to 6.70; in the assay with A673 cells, more than 7.70.

`CC(O)c1cnc(NC2CCCNC2)nc1-c1c[nH]c2ccccc12` (centres unmarked) [Compound 247]: the pIC50 against CDK2/Cyclin E1 complex is not above 5.30; in assay [1] it was 5.30 to 6.70; against CDK9/Cyclin T1 complex it was not above 5.30; in assay [2], not above 5.30; in the assay with A673 cells it was 5.30 to 6.70.

For `Cc1nc(-c2ccc3c(-c4nc(NC5CCCNC5)ncc4C(F)(F)F)c[nH]c3c2)nn1C` (centres unmarked) [Compound 245], the pIC50 against CDK2/Cyclin E1 complex was 5.30 to 6.70; in assay [1] it was more than 7.70; on CDK9/Cyclin T1 complex it was not above 5.30; in assay [2], 5.30 to 6.70; in the assay with A673 cells, 6.70 to 7.70.

In the case of `CCOP(=O)(OCC)c1ccc2c(-c3nc(NC4CCCNC4)ncc3C(F)(F)F)c[nH]c2c1` (centres unmarked) [Compound 187], the pIC50 is not above 5.30 at CDK2/Cyclin E1 complex; 6.70 to 7.70 in assay [1]; not above 5.30 against CDK9/Cyclin T1 complex; 5.30 to 6.70 in assay [2]; 6.70 to 7.70 in the assay on A673 cells.

In the case of `CCc1cnc(NC2CCCNC2)nc1-c1c[nH]c2ccccc12` (centres unmarked) [Compound 105], the pIC50 is not above 5.30 on CDK2/Cyclin E1 complex; 6.70 to 7.70 in assay [1]; not above 5.30 on CDK9/Cyclin T1 complex; 5.30 to 6.70 in assay [2]; 6.70 to 7.70 with A673 cells.

As for `Brc1cnc(N[C@@H]2CCCNC2)nc1-c1c[nH]c2ccccc12` [Compound 133], the pIC50 at CDK2/Cyclin E1 complex was 6.70 to 7.70; in assay [1] it was more than 7.70; against CDK9/Cyclin T1 complex, 5.30 to 6.70; in assay [2], 6.70 to 7.70; with A673 cells, more than 7.70.

On to `CC(O)c1cnc(NC2CCCNC2)nc1-c1c[nH]c2ccccc12` (centres unmarked) [Compound 234], for which the pIC50 against CDK2/Cyclin E1 complex was not above 5.30; in assay [1], 5.30 to 6.70; on CDK9/Cyclin T1 complex, not above 5.30; in assay [2] it was not above 5.30; in the assay on A673 cells it was more than 7.70.
